In PMC9499324, “Glycyrrhizic Acid Derivatives Bearing Amino Acid Residues in the Carbohydrate Part as Dengue Virus E Protein Inhibitors: Synthesis and Antiviral Activity” (International Journal of Molecular Sciences, 2022):
Read-outs that look alike come from different tables or passages of the source.

Tests used:
[1] = test system: DENV1; assay: DENV1 infectivity inhibition assay in Vero E6 cells; type: cell-based; settings: Dengue virus, DENV1, Vero C1008, read-out: IC50 in the DENV1 infectivity inhibition assay
Method: (§1) In the antiviral screening assay, each tested GL conjugate at 10 μM was used to survey the anti-DENV activity in Vero E6 cells using cytopathic effect (CPE) and infectivity reduction assays as described in our prior report. In CPE and infectivity reduction assays, Vero E6 cells were infected by DENV2 at an MOI of 0.005 and simultaneously treated 10 μM of indicated GL conjugate for 96 h, and then photographed by microscope for examining the levels of DENV2-induced CPE in infected cells treated with or without GL conjugate. Meanwhile, the cells were further performed using immunofluorescence assay (IFA) with anti-DENV NS4B antibodies (GeneTex, Inc., Hsinchu, Taiwan) and anti-rabbit IgG antibodies conjugated with AF555 (ThermoFisher, Waltham, MA, USA) plus DAPI (4′,6-diamidino-2-phenylindole) nuclear staining. Finally, the DENV-2 infectivity was measured according to the ratio of DENV NS4B-positive cells to DAPI-stained cells in the well of mock-treated or treated cells, as described in [45, 59, 60].
Supplemental Figure S25. Infectivity inhbition of DENV1 in Vero E6 cells by active GL conjugates. Cells were infected with DENV1 in the presence and absence of Compounds 3, 6, 11, and 21 at the concentrations of 0.1, 1, and 10 μM, respectively. Treated/infected Vero E6 cells were also analyzed using immunofluorescence staining with anti-DENV2 NS4B antibodies.
Residual infectivity was discovered by the ratio of DENV2 NS4B positive cells to total cells stained with DAPI, and relative inhibition activity was determined based on full infectivity with the subtraction of its residual infectivity.
(1 picture or pasted object on this page, not shown here)

[2] = MTT cytotoxicity assay in Vero E6 cells; type: cell-based; settings: African green monkey
Method: Vero E6 cells and A549 cells (5 × 10^3 cells/well) were treated with the serial dilution of GL conjugates at 0, 0.1, 10, 20, and 50 μM for examining the in vitro cytotoxicity of tested compounds. After 96-h incubation at 37 °C, the cells were incubated with MTT (3-(4,5-Dimethylthiazol-2-yl)-2,5-Diphenyltetrazolium Bromide) solution for another 4 h incubation, mixed with DMSO for 15 min after the removal of media, and then measured the absorbance at 570 nm. The viability (%) of treated cells was quantified according to the reduced ability of MTT. Finally, the concentration for reducing 50% cell viability (the 50% cytotoxic concentration, CC50) was determined by regression analysis of the concentration–response survival curve.

[3] = test system: DENV1 and DENV2; assay: DENV infectivity inhibition, summary over DENV1 and DENV2 in Vero E6 and A549 cells; type: cell-based, Dengue virus; settings: read-out: IC50 in DENV infectivity (range over assays)
Excerpt: as §1, with “In the antiviral screening assay, each tested GL conjugate at 10 μM was used to survey the anti-DENV activity in Vero E6 cells using cytopathic effect (CPE) and infectivity reduction assays as described in our prior report.” left out, “[…],” for “Vero E6 cells were infected by DENV2 at an MOI of 0.005 and simultaneously treated 10 μM of indicated GL conjugate for 96 h,”

[4] = test system: wild-type JEV SRIPs; assay: Attachment assay with wild-type JEV SRIPs on Vero E6 cells; type: cell-based, Japanese encephalitis virus; settings: 4 °C for 1 h
Method: Figure 6 Attachment inhibition of chimeric DENV2 CprM-E/JEV and wild-type JEV SRIPs by active GL conjugates. Vero E6 cells were pre-cooled and incubated with freshly prepared mixtures of DENV2 CprM-E/JEV or wild-type JEV SRIPs, with active GL derivatives 3 (A), 6 (B), 11 (C), and 21 (D) at 4 °C for 1 h, respectively. After the removal of the mixtures, the cells were kept at 37 °C for 18 h and then an immunofluorescent assay with anti-JEV NS5 antibodies plus DAPI staining was performed. Finally, the inhibition percentage of SRIP attachment infectivity was measured as follows: 1-(percentage of JEV NS5 positivity in treated cells/percentage of JEV NS5 positivity in mock-treated cells). * p < 0.05; *** p < 0.001 compared with untreated, infected cells.
DNA-launched cytomegaloviruses (CMV) promoter-driven JEV and ZIKV replicons had been constructed, as described in our prior reports. […] After the removal of the mixture (the compound and SRIP), the cells were incubated at 37 °C for 18 h, and then were analyzed by immunofluorescent assay with anti-JEV NS3 and anti-ZIKV NS5 antibodies, respectively, plus DAPI staining for determining the residual infectivity of wild-type and chimeric SRIPs, as described above.

[5] = test system: DENV2; assay: DENV2-induced cytopathic effect (CPE) reduction screening in Vero E6 cells; type: cell-based, Dengue virus type 2; settings: Dengue virus, Vero C1008; 10 μM compound, DENV2, Vero E6 cells, 96 h; read-out: CPE Reduction at 10 μM
Method: as §1

[6] = Dengue virus, range over DENV1 and DENV2, Vero E6 and A549 cells

Compound | IC50 [1] | CC50 at 96 h [2] | IC50 [3, 6] | IC50 [3] | Attachment of wild-type JEV SRIPs onto Vero E6 cells [4] | inhibition at 10 µM [5]
CCOC(=O)[C@H](Cc1ccccc1)NC(=O)[C@H]1O[C@@H](O[C@H]2[C@H](OC3CC[C@@]4(C)C(CC[C@]5(C)C4C(=O)C=C4C6C[C@@](C)(C(=O)O)CC[C@]6(C)CC[C@]45C)C3(C)C)O[C@H](C(=O)N[C@@H](Cc3ccccc3)C(=O)OCC)[C@@H](O)[C@@H]2O)[C@H](O)[C@@H](O)[C@@H]1O (stereo partly drawn) [Compound 11, 3-O-{2-O-[N-(β-D-Glucopyranosyluronoyl)-L-phenylalanineethyl ester]-N-(β-D-Glucopyranosyluronoyl)-L-phenylalanineethyl ester}-(3β, 20β)-11-oxo-30-noroleane-12-ene-30-oic Acid] | 1.25 ± 0.167 µM | > 100 µM | 0.1 to 5.98 µM | 0.18 to 1.56 µM | did not impede | 75 to 100%
COC(=O)[C@H](NC(=O)[C@H]1O[C@@H](O[C@H]2[C@H](OC3CC[C@@]4(C)C(CC[C@]5(C)C4C(=O)C=C4C6C[C@@](C)(C(=O)O)CC[C@]6(C)CC[C@]45C)C3(C)C)O[C@H](C(=O)N[C@@H](C(=O)OC)C(C)C)[C@@H](O)[C@@H]2O)[C@H](O)[C@@H](O)[C@@H]1O)C(C)C (stereo partly drawn) [Compound 3, 3-O-{2-O-[N-(β-D-Glucopyranosyluronoyl)-D-valinemethyl ester]-N-(β-D-glucopyranosyluronoyl)-D-valinemethyl ester}-(3β, 20β)-11-oxo-30-noroleane-12-ene-30-oic Acid] | 2.81 ± 0.54 µM | > 100 µM | 0.1 to 5.98 µM | 0.12 to 2.81 µM | did not impede | 75 to 100%
